Reference: patent US20240245668A1, “AGENT FOR TREATING OR PREVENTING GLAUCOMA INCLUDING A SULFONAMIDE COMPOUND AND ANOTHER DRUG” (SANTEN PHARMACEUTICAL CO., LTD., priority 2012, published 2024)

Tests used:
[1] = test system: monkeys with normal intraocular pressure; assay: Intraocular pressure lowering effect, present compound and brimonidine concomitantly administered to monkeys; assay type: in vivo, Cynomolgus monkey; details: male cynomolgus monkeys, instillation into one eye, 0.0006 w/v % present compound solution 20 μL, ALPHAGAN P (0.15%) 20 μL
From the text: (§1) In order to study the usefulness of a combination of the present compound with an α2-receptor agonist, an intraocular pressure lowering effect when the present compound and brimonidine were concomitantly administered to experimental animals (monkeys with normal intraocular pressure) was examined.
(§2) An intraocular pressure lowering effect when the present compound and brimonidine were concomitantly administered was examined. As comparison subjects, intraocular pressure lowering effects when the present compound or brimonidine was administered singly were also examined. As a control, the base and physiological saline were administered.
(§3) Present compound solution: a 0.0006 w/v % present compound solution (instillation amount: 20 μL) […]
(§4) • (1) One drop of a 0.4% oxybuprocaine hydrochloride eye drop (trade name: Benoxil (registered trademark) eye drop (0.4%)) was instilled into both eyes of each experimental animal to effect local anesthesia. • (2) Intraocular pressure was measured immediately before administering the test compound solution, and the measured intraocular pressure was defined as initial intraocular pressure. • (3) The present compound solution was instilled into one eye of each experimental animal (the other eye was not treated). […] The intraocular pressure was measured in triplicate for each eye to obtain an average of three measurements, which is shown as the result. […]

[2] = test system: monkeys with normal intraocular pressure; assay: Intraocular pressure lowering effect, present compound and brinzolamide concomitantly administered to monkeys; assay type: in vivo, Cynomolgus monkey; details: male cynomolgus monkeys, instillation into one eye, 0.0006 w/v % present compound solution 20 μL, Azopt Ophthalmic Suspension (1%) 20 μL
From the text: as §1, with “a carbonic anhydrase inhibitor,” for “an α2-receptor agonist,”, “brinzolamide” for “brimonidine”
as §2, with “brinzolamide” for “brimonidine”
as §3, §4

[3] = test system: monkeys with normal intraocular pressure; assay: Intraocular pressure lowering effect, present compound and latanoprost concomitantly administered to monkeys; assay type: in vivo, Cynomolgus monkey; details: male cynomolgus monkeys, instillation into one eye, 0.0006 w/v % present compound solution 20 μL, Xalatan eye drop (0.005%) 20 μL
From the text: In order to study the usefulness of a combination of the present compound with a prostaglandin, an intraocular pressure lowering effect when the present compound and latanoprost were concomitantly administered to experimental animals (monkeys with normal intraocular pressure) was examined.
as §2, with “latanoprost” for “brimonidine”
as §3
as §4, with “The intraocular measured in” for “The intraocular pressure was measured in”

[4] = test system: rabbits with normal intraocular pressure; assay: Intraocular pressure lowering effect, present compound and timolol concomitantly administered to rabbits; assay type: in vivo, Japanese white rabbit; details: male JW rabbits, instillation into one eye, 0.001 w/v % present compound solution 50 μL, Timoptol eye drop (0.5%) 50 μL
From the text: In order to study the usefulness of the combination of the present compound with a β-receptor antagonist, an intraocular pressure lowering effect when the present compound and timolol were concomitantly administered to experimental animals (rabbits with normal intraocular pressure) was examined.
as §2, with “timolol” for “brimonidine”
Present compound solution: a 0.001 w/v % present compound solution (instillation amount: 50 μL) […]
as §4

SMILES	Intraocular pressure lowering degree (change relative to average of control group) at 2 hours after instillation [1] [mmHg]	Intraocular pressure lowering degree (change relative to average of control group) at 4 hours after instillation [2] [mmHg]	Intraocular pressure lowering degree (change relative to average of control group) at 8 hours after instillation [3] [mmHg]	Intraocular pressure lowering degree (change relative to average of control group) at 4 hours after instillation [4] [mmHg]
Brc1c(NC2=NCCN2)ccc2nccnc12 [Brimonidine, brimonidine]	1.8	–	–	–
CCN[C@H]1CN(CCCOC)S(=O)(=O)c2sc(S(N)(=O)=O)cc21 [Brinzolamide, brinzolamide]	–	1.6	–	–
CC(C)OC(=O)CCC/C=C\C[C@@H]1[C@@H](CC[C@@H](O)CCc2ccccc2)[C@H](O)C[C@@H]1O [Latanoprost, latanoprost]	–	–	1.5	–
CC(C)OC(=O)CNc1cccc(CN(Cc2ccc(-n3cccn3)cc2)S(=O)(=O)c2cccnc2)n1 [Present compound, isopropyl (6-{[4-(pyrazol-1-yl)benzyl](pyridin-3-ylsulfonyl)aminomethyl}pyridin-2-ylamino) acetate]	2.6	2.5	1.6	1.6
CC(C)(C)NC[C@H](O)COc1nsnc1N1CCOCC1 [Timolol, timolol]	–	–	–	2.3
